Results on one compound are retold here after PMC4491433 (Molecular and cellular endocrinology, 2010).

The structures appear in SMILES notation.

Test [1] addresses T1, human FSH receptor (hFSHR) (Homo sapiens, UniProt P23945).
T1 sequence (P23945 18-695): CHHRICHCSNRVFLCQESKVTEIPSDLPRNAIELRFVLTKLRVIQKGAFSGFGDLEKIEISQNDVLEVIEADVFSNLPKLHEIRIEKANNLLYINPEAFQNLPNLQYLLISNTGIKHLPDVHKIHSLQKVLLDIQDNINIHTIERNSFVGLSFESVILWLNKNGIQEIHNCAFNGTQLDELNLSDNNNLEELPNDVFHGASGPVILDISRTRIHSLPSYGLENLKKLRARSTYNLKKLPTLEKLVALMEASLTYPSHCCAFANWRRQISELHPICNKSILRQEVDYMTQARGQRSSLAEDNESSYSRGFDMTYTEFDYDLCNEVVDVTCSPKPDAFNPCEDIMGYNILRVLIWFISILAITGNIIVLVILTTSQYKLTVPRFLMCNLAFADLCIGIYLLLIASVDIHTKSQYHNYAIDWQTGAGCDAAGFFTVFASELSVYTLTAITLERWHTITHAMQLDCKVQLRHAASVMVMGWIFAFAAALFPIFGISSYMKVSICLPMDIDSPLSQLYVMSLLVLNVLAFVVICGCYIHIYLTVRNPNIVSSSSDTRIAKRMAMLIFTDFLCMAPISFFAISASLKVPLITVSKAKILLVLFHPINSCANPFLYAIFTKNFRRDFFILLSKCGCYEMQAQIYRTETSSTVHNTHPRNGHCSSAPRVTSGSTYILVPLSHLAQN
Kind of test: HTRF cAMP inhibition. It counts as cell-based. (In general: In TR-FRET formats the signal depends on donor and acceptor labels being close together.)

The next test has as its target hLH receptor (Homo sapiens, UniProt P22888). Kind of test: inhibition of LH EC80 response at hLH receptor. It counts as cell-based.

Chain of hLH receptor (P22888 27-699): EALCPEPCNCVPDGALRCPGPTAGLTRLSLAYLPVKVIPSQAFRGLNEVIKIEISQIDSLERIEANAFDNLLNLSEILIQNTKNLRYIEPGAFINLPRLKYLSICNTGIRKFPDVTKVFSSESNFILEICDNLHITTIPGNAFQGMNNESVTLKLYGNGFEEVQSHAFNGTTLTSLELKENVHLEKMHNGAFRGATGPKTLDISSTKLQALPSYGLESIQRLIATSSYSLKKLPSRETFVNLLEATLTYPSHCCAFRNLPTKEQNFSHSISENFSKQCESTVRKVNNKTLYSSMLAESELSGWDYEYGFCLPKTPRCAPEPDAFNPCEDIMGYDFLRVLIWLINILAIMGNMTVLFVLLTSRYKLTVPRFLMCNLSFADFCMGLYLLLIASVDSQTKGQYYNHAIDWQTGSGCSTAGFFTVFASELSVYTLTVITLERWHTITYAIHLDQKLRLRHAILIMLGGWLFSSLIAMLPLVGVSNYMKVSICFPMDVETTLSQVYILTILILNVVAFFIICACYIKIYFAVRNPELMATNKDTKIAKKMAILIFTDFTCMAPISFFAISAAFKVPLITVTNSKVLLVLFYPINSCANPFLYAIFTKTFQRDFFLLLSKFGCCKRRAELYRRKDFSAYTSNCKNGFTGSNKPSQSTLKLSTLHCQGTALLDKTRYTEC

The term IC50 denotes the point on the concentration scale where inhibition reaches its midpoint. Low values mean inhibition by little substance, high ones a need for much substance. Regarding `COc1ccc(C(=O)Nc2ccc(C(C)(C)C#N)cc2)cc1OC` [ADX61623], the IC50 in test [1] came to 700 ± 200 nM; on hLH receptor, 3400 ± 800 nM.
